From US10730868B2, “Bicyclic heteroaryl substituted compounds” (BRISTOL-MYERS SQUIBB COMPANY, priority 2016, dated 2020)

The compounds below were run against PAR4 (Homo sapiens (Human), UniProt Q96RI0) (assay: PAR4 FLIPR assay (antagonism of agonist-peptide-induced calcium mobilization)). Conditions: H-Ala-Phe(4-F)-Pro-Gly-Trp-Leu-Val-Lys-Asn-Gly-NH2-induced intracellular calcium mobilization, PAR4-expressing HEK293 cells; read-out: PAR4 FLTPR assay (IC50).
Sequence of PAR4 (Q96RI0 18-385): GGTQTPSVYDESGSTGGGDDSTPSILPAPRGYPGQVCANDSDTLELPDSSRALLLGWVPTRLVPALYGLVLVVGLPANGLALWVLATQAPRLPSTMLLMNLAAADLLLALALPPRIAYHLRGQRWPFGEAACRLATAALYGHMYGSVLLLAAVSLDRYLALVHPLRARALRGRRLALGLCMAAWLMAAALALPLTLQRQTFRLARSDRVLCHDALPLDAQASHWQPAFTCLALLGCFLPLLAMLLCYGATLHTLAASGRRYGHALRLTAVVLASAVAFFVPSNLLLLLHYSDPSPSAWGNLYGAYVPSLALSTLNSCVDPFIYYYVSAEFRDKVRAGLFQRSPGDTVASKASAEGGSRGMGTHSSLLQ
Type: cell-based
Source text: The Fluorometric Imaging Plate Reader (FLIPR) assay is an exemplary in vitro assay for measuring the activity of the PAR4 antagonists of the present invention. In this assay, intracellular calcium mobilization is induced in PAR4 expressing cells by a PAR4 agonist and calcium mobilization is monitored.
HEK293 cells stably expressing PAR4 were generated by a standard method of transfection of human PAR4 (F2R23) cDNA expression vector and selected based on PAR4 protein expression or mRNA expression. […] These cells also express endogenous PAR1 and can elicit calcium signal upon stimulation with PAR1 agonist peptide. Therefore, the same cells were also used to determine selectivity against PAR1 and agonist activity for both receptors. Cells from HEK293 PAR4 Clone 1.2A (BMS Arctic ID 383940) were propagated and used for calcium mobilization studies.
FLIPR-based calcium mobilization assay in HEK293 cells was used to measure PAR4 antagonism agonism, and selectivity against PAR1. The activity of the PAR4 antagonists of the present invention were tested in PAR4 expressing cells by monitoring H-Ala-Phe(4-F)-[…]NH2-induced intracellular calcium mobilization. Counter screens for agonist activity and PAR1 antagonist activity were also performed. Briefly, PAR/PAR4-expressing HEK293 cells were grown in DMEM (Life Technology, Grand Island, N.Y.) containing 10% heat-inactivated FBS, 1% Penicillin-Streptomycin, 10 μg/mL blasticidin, and 100 μg/mL Zeocin at 37° C. with 5% CO2. Cells were plated overnight prior to the experiment in a black 384-well Purecoat Amine clear bottom plate (Becton Dickinson Biosciences, San Jose, Calif.) at 10,000 cells/well in 30 μL growth medium and incubated in a humidified chamber at 37° C. with 5% CO2 overnight. Prior to compound addition, the cell medium was replaced with 40 μL of 1× calcium and magnesium-containing Hank's Balanced Saline Solution (HBSS) (with 20 mM HEPES) and 1:1000 diluted fluorescent calcium indicator (Codex Biosolutions, Gaithersburg, Md.). After a 30 minute incubation period at 37° C. and a further 30 minute incubation and equilibration period at room temperature, 20 μL test compound (diluted in 1×HBSS buffer) was added at various concentrations at 0.17% dimethyl sulfoxide (DMSO) final concentration. Changes in fluorescence intensity were measured using a Functional Drug Screening System (FDSS, Hamamatsu, Japan) to determine agonist activities. The cells were then incubated for 30 minutes at room temperature followed by addition of 20 μL of agonist peptide for antagonist activity measurement. […] Compound potency was derived from 11-point concentration-response curves.
`COc1cnc2c(-c3nc4cc(F)c(O[C@@H]5CC[C@@H]5OC(=O)Nc5cnc(OC[C@@H](C)O)nc5)cc4s3)cc(C)cc2n1` (stereo in doubt) [Example 62, cis-2-((5-fluoro-2-(2-methoxy-7-methylquinoxalin-5-yl)benzo[d]thiazol-6-yl)oxy)cyclobutyl (2-((R)-2-hydroxypropoxy)pyrimidin-5-yl)carbamate (Homochiral)] gave an IC50 of 6.9 nM. `COc1cnc2c(-c3nc4cc(F)c(O[C@@H]5CC[C@@H]5OC(=O)Nc5cnc(OCCO)nc5)cc4s3)cc(C)cc2c1` (stereo in doubt) [Example 74, cis-2-((5-fluoro-2-(3-methoxy-6-methylquinolin-8-yl)benzo[d]thiazol-6-yl)oxy)cyclo butyl (2-(2-hydroxyethoxy)pyrimidin-5-yl)carbamate (Homochiral)] was tested, and the IC50 was 8.9 nM. `COc1cnc2c(-c3nc4cc(F)c(O[C@@H]5CC(F)(F)C[C@@H]5OC(=O)Nc5cnc(C)nc5)cc4s3)cc(C)cc2n1` (stereo in doubt) [Example 99, (cis)-4,4-difluoro-2-((5-fluoro-2-(2-methoxy-7-methylquinoxalin-5-yl)benzo[d]thiazol-6-yl)oxy)cyclopentyl (2-methylpyrimidin-5-yl)carbamate (Homochiral)] showed an IC50 of 32 nM. In the case of `COc1cnc2c(-c3nc4cc(F)c(O[C@H]5CC(F)(F)CC[C@H]5OC(=O)Nc5cnc(OCCO)nc5)cc4s3)cc(C)cc2n1` [Example 1], the IC50 is reported as 1.6 nM. Work on `COc1cnc2c(-c3nc4cc(F)c(O[C@H]5CC(F)(F)CC[C@H]5OC(=O)Nc5ccc(C(=O)NCC(C)(C)O)nc5)cc4s3)cc(C)cc2n1` [Example 2] yielded an IC50 of 0.46 nM. `COc1cnc2c(-c3nc4cc(F)c(O[C@H]5CC(F)(F)CC[C@H]5OC(=O)Nc5cnc(CCO)nc5)cc4s3)cc(C)cc2n1` [Example 3] gave an IC50 of 0.82 nM. Compound `COc1cnc2c(-c3nc4cc(F)c(O[C@H]5CC(F)(F)CC[C@H]5OC(=O)Nc5cnc(C)nc5)cc4s3)cc(C)cc2n1` [Example 4] has an IC50 of 1.9 nM. `COc1cnc2c(-c3nc4cc(F)c(O[C@H]5CC(F)(F)CC[C@H]5OC(=O)Nc5ccc(CCO)nc5)cc4s3)cc(C)cc2n1` [Example 5] showed an IC50 of 6.8 nM.

Same assay, conditions: H-Ala-Phe(4-F)-[…]NH2-induced intracellular calcium mobilization, PAR4-expressing HEK293 cells; read-out: PAR4 FLTPR assay (IC50)
`COc1ccc(NC(=O)O[C@H]2CCOC[C@H]2Oc2cc3sc(-c4cc(C#N)cc5nc(OC)cnc45)nc3cc2F)cn1` (racemic) [Example 89, rac-cis-3-((2-(7-cyano-2-methoxyquinoxalin-5-yl)-5-fluorobenzo[d]thiazol-6-yl)oxy)tetrahydro-2H-pyran-4-yl (6-methoxypyridin-3-yl)carbamate] showed an IC50 of 3.8 nM. With `COc1cnc2c(-c3nc4cc(F)c(O[C@@H]5CN(C(=O)OCc6ccccc6)C[C@H]5O)cc4s3)cc(C)cc2n1` (racemic) [Example 90, rac-trans-benzyl 3-((5-fluoro-2-(2-methoxy-7-methylquinoxalin-5-yl)benzo[d]thiazol-6-yl)oxy)-4-hydr oxopyrrolidine-1-carboxylate] the IC50 was 330 nM. With `COc1cnc2c(-c3nc4cc(F)c(O[C@@H]5CN(C(=O)OC(C)(C)C)CC[C@@H]5OC(=O)Nc5cnc(C)nc5)cc4s3)cc(C)cc2n1` (racemic) [Example 91, rac-cis-tert-butyl 3-((5-fluoro-2-(2-methoxy-7-methylquinoxalin-5-yl)benzo[d]thiazol-6-yl)oxy)-4-(((2-methylpyrimidin-5-yl)carbamoyl)oxy)piperidine-1-carboxylate] the IC50 was 3.8 nM. In the case of `COc1ccc(NC(=O)O[C@H]2CCN(C(=O)OC(C)(C)C)C[C@H]2Oc2cc3sc(-c4cc(C)cc5nc(OC)cnc45)nc3cc2F)cn1` (racemic) [Example 92, rac-cis-tert-butyl 3-((5-fluoro-2-(2-methoxy-7-methylquinoxalin-5-yl)benzo[d]thiazol-6-yl)oxy)-4-(((6-methoxypyridin-3-yl)carbamoyl)oxy)piperidine-1-carboxylate], the IC50 is reported as 12 nM. With `COc1cnc2c(-c3nc4cc(F)c(O[C@@H]5CN(C(C)=O)CC[C@@H]5OC(=O)Nc5cnc(C)nc5)cc4s3)cc(C)cc2n1` (racemic) [Example 94, rac-cis-1-acetyl-3-((5-fluoro-2-(2-methoxy-7-methylquinoxalin-5-yl)benzo[d]thiazol-6-yl)oxy)piperidin-4-yl (2-methylpyrimidin-5-yl)carbamate] the IC50 was 2300 nM. `COc1cnc2c(-c3nc4cc(F)c(O[C@@H]5CN(S(C)(=O)=O)CC[C@@H]5OC(=O)Nc5cnc(C)nc5)cc4s3)cc(C)cc2n1` (racemic) [Example 95, rac-cis-3-((5-fluoro-2-(2-methoxy-7-methylquinoxalin-5-yl)benzo[d]thiazol-6-yl)oxy)-1-(methylsulfonyl)piperidin-4-yl (2-methylpyrimidin-5-yl)carbamate] showed an IC50 of 72 nM. For `COc1cnc2c(-c3nc4cc(F)c(O[C@@H]5CN(C(=O)C(F)(F)F)CC[C@@H]5OC(=O)Nc5cnc(C)nc5)cc4s3)cc(C)cc2n1` (racemic) [Example 96, rac-cis-3-((5-fluoro-2-(2-methoxy-7-methylquinoxalin-5-yl)benzo[d]thiazol-6-yl)oxy)-1-(2,2,2-trifluoroacetyl)piperidin-4-yl (2-methylpyrimidin-5-yl)carbamate], the IC50 was 44 nM. In the case of `COc1cnc2c(-c3nc4cc(F)c(O[C@@H]5CC(F)(F)C[C@@H]5OC(=O)Nc5cnc(C)nc5)cc4s3)cc(C)cc2n1` (racemic) [Example 97, rac-cis-4,4-difluoro-2-((5-fluoro-2-(2-methoxy-7-methylquinoxalin-5-yl)benzo[d]thiazol-6-yl)oxy)cyclopentyl (2-methylpyrimidin-5-yl)carbamate)], the IC50 is reported as 9.2 nM. Work on `COc1cnc2c(-c3nc4cc(F)c(O[C@@H]5CC(F)(F)C[C@@H]5OC(=O)Nc5cnc(C)nc5)cc4s3)cc(Cl)cc2c1` (racemic) [Example 98, rac-cis-2-((2-(6-chloro-3-methoxyquinolin-8-yl)-5-fluorobenzo[d]thiazol-6-yl)oxy)-4,4-difluorocyclopentyl (2-methylpyrimidin-5-yl)carbamate] yielded an IC50 of 14 nM. `COc1cnc2c(-c3nc4cc(F)c(O[C@@H]5CCC(C)(C)[C@@H]5O)cc4s3)cc(C)cc2n1` (racemic) [Example 103, rac-cis-5-((5-fluoro-2-(2-methoxy-7-methyl)quinoxalin-5-yl)benzo[d]thiazol-6-yl)oxy)-2,2-dimethylcyclopentanol] showed an IC50 of 20 nM. Work on `COc1cnc2c(-c3nc4cc(F)c(O[C@@H]5CCC(C)(C)[C@@H]5OC(=O)Nc5cnc(C)nc5)cc4s3)cc(C)cc2n1` (racemic) [Example 104, rac-cis-5-((5-fluoro-2-(2-methoxy-7-methylquinoxalin-5-yl)benzo[d]thiazol-6-yl)oxy)-2,2-dimethylcyclopentyl (2-methylpyrimidin-5-yl)carbamate] yielded an IC50 of 2.4 nM. `COc1cnc2c(-c3nc4cc(F)c(O[C@H]5CCCC[C@H]5OC(=O)Nc5cccnc5)cc4s3)cc(C)cc2n1` (single isomer, unassigned; enantiomer 1) [Example 58, cis-2-((5-fluoro-2-(2-methoxy-7-methylquinoxalin-5-yl)benzo[d]thiazol-6-yl)oxy)cyclohexyl pyridin-3-ylcarbamate (Enantiomer 1)] gave an IC50 of 1.4 nM. `COc1cnc2c(-c3nc4cc(F)c(O[C@H]5CC(C)(C)C[C@H]5OC(=O)Nc5cnc(C)nc5)cc4s3)cc(C)cc2n1` (single isomer, unassigned; enantiomer 1) [Example 84, (cis)-2-((5-fluoro-2-(2-methoxy-7-methylquinoxalin-5-yl)benzo[d]thiazol-6-yl)oxy)-4,4-dimethylcyclopentyl (2-methylpyrimidin-5-yl)carbamate Enantiomer 1] showed an IC50 of 5.4 nM. `COc1cnc2c(-c3nc4cc(F)c(O[C@@H]5CCCC[C@@H]5OC(=O)Nc5cccnc5)cc4s3)cc(C)cc2n1` (single isomer, unassigned; enantiomer 2) [Example 59, cis-2-((5-fluoro-2-(2-methoxy-7-methylquinoxalin-5-yl)benzo[d]thiazol-6-yl)oxy)cyclohexyl pyridin-3-ylcarbamate (Enantiomer 2)] gave an IC50 of 77 nM. In the case of `COc1cnc2c(-c3nc4cc(F)c(O[C@@H]5CC(C)(C)C[C@@H]5OC(=O)Nc5cnc(C)nc5)cc4s3)cc(C)cc2n1` (single isomer, unassigned; enantiomer 2) [Example 85, (cis)-2-((5-fluoro-2-(2-methoxy-7-methylquinoxalin-5-yl)benzo[d]thiazol-6-yl)oxy)-4,4-dimethylcyclopentyl (2-methylpyrimidin-5-yl)carbamate Enantiomer 2], the IC50 is reported as 41 nM.
